ChEMBL document CHEMBL1949506, “Discovery of CS-2100, a potent, orally active and S1P3-sparing S1P1 agonist” (Bioorg Med Chem Lett, 2012)

What was measured:
[1] = target: Sphingosine 1-phosphate receptor 1 (Homo sapiens, UniProt P21453); test: Agonist activity at human S1P1 receptor assessed as stimulation of [35S]GTPgamma binding; assay type: functional
[2] = target: Sphingosine 1-phosphate receptor 3 (Homo sapiens, UniProt Q99500); test: Agonist activity at human S1P3 receptor assessed as stimulation of [35S]GTPgamma binding; assay type: functional
Sequence of Sphingosine 1-phosphate receptor 3 (Q99500 whole entry): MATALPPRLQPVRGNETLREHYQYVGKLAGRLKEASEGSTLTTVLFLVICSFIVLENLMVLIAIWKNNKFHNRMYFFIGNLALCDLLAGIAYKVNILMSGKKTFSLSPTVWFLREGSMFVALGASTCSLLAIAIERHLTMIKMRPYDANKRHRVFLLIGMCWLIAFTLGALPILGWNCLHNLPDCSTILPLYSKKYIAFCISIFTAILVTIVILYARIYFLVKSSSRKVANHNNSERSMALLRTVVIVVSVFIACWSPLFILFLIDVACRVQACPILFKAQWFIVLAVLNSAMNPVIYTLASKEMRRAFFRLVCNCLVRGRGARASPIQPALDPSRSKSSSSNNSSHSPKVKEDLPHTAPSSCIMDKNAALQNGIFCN

[3] = organism: Homo sapiens; test: Selectivity ratio of EC50 for human S1P3 receptor to EC50 for human S1P1 receptor
[4] = test system: Rattus norvegicus; test: Immunosuppressive activity in LEW rat model assessed as inhibition of WKAH rat spleen cells-induced popliteal lymph node swelling at 1 mg/kg, po administered qd for 4 days measured at day 4 by host versus graft reaction analysis; assay type: functional; conditions: 96 h
[5] = test system: Rattus norvegicus; test: Immunosuppressive activity in po dosed LEW rat model assessed as inhibition of WKAH rat spleen cells-induced popliteal lymph node swelling administered qd for 4 days measured at day 4 by host versus graft reaction analysis; assay type: functional; conditions: 96 h, read-out: ID50 (the source's name)

Sequence of Sphingosine 1-phosphate receptor 1 (P21453 whole entry): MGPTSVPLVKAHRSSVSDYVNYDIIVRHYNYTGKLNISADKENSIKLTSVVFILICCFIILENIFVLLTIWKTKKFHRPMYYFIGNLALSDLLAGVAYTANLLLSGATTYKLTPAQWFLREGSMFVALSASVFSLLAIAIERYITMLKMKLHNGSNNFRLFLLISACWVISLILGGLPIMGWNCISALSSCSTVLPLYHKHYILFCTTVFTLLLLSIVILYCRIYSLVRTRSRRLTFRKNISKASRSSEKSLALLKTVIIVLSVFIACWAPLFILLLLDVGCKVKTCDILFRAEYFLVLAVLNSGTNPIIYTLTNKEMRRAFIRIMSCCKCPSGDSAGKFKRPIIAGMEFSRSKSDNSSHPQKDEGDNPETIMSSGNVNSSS

Structure (SMILES) | EC50 [1] | EC50 [2] | Ratio EC50 [3] | inhibition in vivo at 1 mg/kg [4] | ED50 [5]
CCc1cc(-c2noc(-c3ccc(Oc4ccccc4)cc3)n2)sc1CN1CC(C(=O)O)C1 | 12 nM | > 20000 nM | > 1670 |  | 
O=C(O)C1CN(Cc2csc(-c3noc(-c4ccc(Oc5ccccc5)cc4)n3)c2)C1 | 34 nM | > 20000 nM | > 588 |  | 
Cc1ccccc1Oc1ccc(-c2nc(-c3csc(CN4CC(C(=O)O)C4)c3)no2)cc1 | 35 nM | 2000 nM | 57 |  | 
O=C(O)C1CN(Cc2cc(-c3noc(-c4cccc(-c5ccccc5)c4)n3)cs2)C1 | 850 nM | > 20000 nM | > 23 |  | 
Cc1cc(CN2CC(C(=O)O)C2)sc1-c1noc(-c2ccc(Oc3ccccc3)cc2)n1 | 11 nM | > 20000 nM | > 1820 |  | 
Cc1cccc(Oc2ccc(-c3nc(-c4csc(CN5CC(C(=O)O)C5)c4)no3)cc2)c1 | 200 nM | > 20000 nM | > 100 |  | 
CCCCc1ccccc1Oc1ccc(-c2nc(-c3sc(CN4CC(C(=O)O)C4)cc3CC)no2)cc1 | 9 nM | > 20000 nM |  | 66% | 
CCCc1cc(CN2CC(C(=O)O)C2)sc1-c1noc(-c2ccc(Oc3ccccc3)cc2)n1 | 30 nM | 13000 nM | 433 |  | 
CCc1cc(CN2CC(C(=O)O)C2)sc1-c1noc(-c2ccc(Oc3ccccc3)c(OC)c2)n1 | 14 nM | > 20000 nM |  |  | 
O=C(O)C1CN(Cc2cc(-c3noc(-c4ccc(-c5ccccc5)cc4)n3)cs2)C1 | 30 nM | > 20000 nM | > 666 |  | 
Cc1cc(-c2nc(-c3csc(CN4CC(C(=O)O)C4)c3)no2)ccc1Oc1ccccc1 | 21 nM | 3000 nM | 142 |  | 
O=C(O)C1CN(Cc2cc(-c3noc(-c4ccc(OCc5ccccc5)cc4)n3)cs2)C1 | > 20000 nM | > 20000 nM |  |  | 
Cc1cc(-c2noc(-c3ccc(Oc4ccccc4)cc3)n2)sc1CN1CC(C(=O)O)C1 | 25 nM | > 20000 nM | > 800 |  | 
CC(C)c1cc(CN2CC(C(=O)O)C2)sc1-c1noc(-c2ccc(Oc3ccccc3)cc2)n1 | 75 nM | 15000 nM | 200 |  | 
CCCOc1ccc(-c2nc(-c3csc(CN4CC(C(=O)O)C4)c3)no2)cc1 | 60 nM | > 20000 nM | > 333 |  | 
Cc1cc(Oc2ccccc2)ccc1-c1nc(-c2csc(CN3CC(C(=O)O)C3)c2)no1 | 600 nM | > 20000 nM | > 33 |  | 
CCCc1ccccc1Oc1ccc(-c2nc(-c3sc(CN4CC(C(=O)O)C4)cc3CC)no2)cc1 | 13 nM | > 20000 nM |  | 56% | 
Cc1ccc(Oc2ccc(-c3nc(-c4csc(CN5CC(C(=O)O)C5)c4)no3)cc2)cc1 | 110 nM | 12000 nM | 109 |  | 

These reach a lower EC50 [1]. Values come first.

EC50 [1] | EC50 [2] | Ratio EC50 [3] | Structure (SMILES) | inhibition in vivo at 1 mg/kg [4] | ED50 [5]
8.5 nM | 4600 nM | 541 | O=C(O)C1CN(Cc2cc(-c3noc(-c4ccc(Oc5ccccc5)cc4)n3)cs2)C1 |  | 
8.5 nM | > 20000 nM |  | CCc1cc(CN2CC(C(=O)O)C2)sc1-c1noc(-c2ccc(Oc3ccccc3F)cc2)n1 |  | 0.369 mg/kg
7.5 nM | 6000 nM |  | CCc1cc(CN2CC(C(=O)O)C2)sc1-c1noc(-c2ccc(Oc3ccccc3)c(C)c2)n1 |  | 
6.5 nM | 800 nM | 123 | O=C(O)C1CN(Cc2cc(-c3noc(-c4cc(-c5ccccc5)c(C(F)(F)F)s4)n3)cs2)C1 |  | 
6.5 nM | 10000 nM |  | CCc1ccccc1Oc1ccc(-c2nc(-c3sc(CN4CC(C(=O)O)C4)cc3CC)no2)cc1 | 62% | 
6.5 nM | > 20000 nM |  | CCc1cc(CN2CC(C(=O)O)C2)sc1-c1noc(-c2ccc(Oc3ccccc3Cl)cc2)n1 |  | 0.461 mg/kg
5 nM | > 20000 nM |  | CCc1cc(CN2CC(C(=O)O)C2)sc1-c1noc(-c2ccc(Oc3ccccc3)c(Cl)c2)n1 | 49% | 
5 nM | > 20000 nM |  | CCc1cc(CN2CC(C(=O)O)C2)sc1-c1noc(-c2ccc(Oc3ccccc3)c(F)c2)n1 |  | 0.142 mg/kg
4.5 nM | 11000 nM |  | CCc1cc(CN2CC(C(=O)O)C2)sc1-c1noc(-c2ccc(Oc3ccccc3C(C)C)cc2)n1 |  | 
4.2 nM | 1600 nM | 380 | O=C(O)C1CN(Cc2ccc(-c3noc(-c4cc(-c5ccccc5)c(C(F)(F)F)s4)n3)cc2)C1 |  | 
4 nM | 15000 nM |  | CCc1cc(CN2CC(C(=O)O)C2)sc1-c1noc(-c2ccc(Oc3ccccc3OC)cc2)n1 | 74% | 
4 nM | > 20000 nM | > 5000 | CCc1cc(CN2CC(C(=O)O)C2)sc1-c1noc(-c2ccc(Oc3ccccc3)cc2)n1 |  | 0.407 mg/kg
3 nM | 4500 nM |  | CCc1cc(CN2CC(C(=O)O)C2)sc1-c1noc(-c2ccc(Oc3ccccc3C)cc2)n1 | 35% | 
1 nM | 900 nM | 900 | O=C(O)C1CN(Cc2ccc(-c3noc(-c4ccc(Oc5ccccc5)cc4)n3)s2)C1 |  | 
